# Results from patent publication US4210754A, “Morpholino containing benzamides” (Hoffmann-La Roche Inc., priority 1978, dated 1980).
# Tests used:
# [1] = toxicity (LD50) p.o. in mice; conditions: mouse, in vivo, po
# Procedure: (§1) The MAO inhibiting activity of the compounds of formula I of the invention can be determined using standard methods. Thus, the compounds of formula I to be tested were administered p.o. to rats. One hour thereafter the animals were killed and the MAO inhibiting activity in the liver homogenates was measured according to the method described in Biochem. Pharmacol. 12 (1963) 1439-1441. The activity thus determined of representative compounds of the present invention and their toxicity can be seen from the ED50 values (μmol/kg.p.o. in rats) and LD50 values (mg/kg, p.o. in mice) listed in the Table which follows: […]
# monoamine oxidase (MAO) = experiment: MAO inhibiting activity in liver homogenates of rats after p.o. administration; format: in vivo; conditions: animals killed one hour after administration, MAO measured in liver homogenates, 60 min
# Procedure: as §1
# [2] = toxicity (LD50) p.o. in rats; conditions: rat, in vivo, po, after 10 days
SMILES,LD50 [1],ED50 (MAO inhibiting activity) (monoamine oxidase (MAO)),LD50 at 240 h [2]
O=C(NCCN1CCOCC1)c1ccc(I)cc1 [p-iodo-N-(2-morpholinoethyl)-benzamide],1250 to 2500 mg/kg,4 µmol/kg,–
O=C(NCCN1CCOCC1)c1ccc(Br)cc1 [p-bromo-N-(2-morpholinoethyl)-benzamide],1250 to 2500 mg/kg,6 µmol/kg,–
CC(C)(C)c1ccc(C(=O)NCCN2CCOCC2)cc1 [p-t-butyl-N-(2-morpholinoethyl)-benzamide],1250 to 2500 mg/kg,16 µmol/kg,–
O=C(NCCN1CCOCC1)c1ccc(Cl)cc1[N+](=O)[O-] [4-chloro-N-(2-morpholinoethyl)-2-nitrobenzamide],–,2 µmol/kg,–
"O=C(NCCN1CCOCC1)c1ccc(C(F)(F)F)cc1 [α,α,α-trifluoro-N-(2-morpholinoethyl)-p-toluamide]",1000 to 2000 mg/kg,16 µmol/kg,–
"O=C(NCCN1CCOCC1)c1ccc(Cl)cc1Cl [2,4-dichloro-N-(2-morpholinoethyl)-benzamide]",1250 to 2500 mg/kg,13 µmol/kg,–
O=C(NCCN1CCOCC1)c1ccc(Cl)cc1 [p-chloro-N-(2-morpholinoethyl)-benzamide],–,5 µmol/kg,707 ± 55 mg/kg
O=C(NCCN1CCOCC1)c1ccc(F)cc1 [p-fluoro-N-(2-morpholinoethyl)-benzamide],1250 to 2500 mg/kg,11 µmol/kg,–
